# According to article PMC8023582 (ACS Chemical Biology, 2021):
# Target: T1, RORα (Homo sapiens, UniProt P35398)
# T1 sequence (P35398 272-510 limits assumed): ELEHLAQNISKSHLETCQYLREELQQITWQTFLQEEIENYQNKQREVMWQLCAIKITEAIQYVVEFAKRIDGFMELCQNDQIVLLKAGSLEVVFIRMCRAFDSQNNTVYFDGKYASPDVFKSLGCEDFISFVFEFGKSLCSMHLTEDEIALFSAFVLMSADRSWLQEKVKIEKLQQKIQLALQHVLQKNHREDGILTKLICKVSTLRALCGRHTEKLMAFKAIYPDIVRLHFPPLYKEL
# Assay: TR-FRET coactivator recruitment assay on RORα
# Assay type: biochemical
# Settings: read-out: RORα: cofactor recruitment IC50; Figure 3B
smiles,measurement,value
"CC(C)CCC[C@@H](C)[C@H]1CC[C@H]2[C@@H]3CC=C4C[C@@H](OS(=O)(=O)O)CC[C@]4(C)[C@H]3CC[C@]12C [Chol-SO4, sulfated cholesterol]",IC50,190 ± 50 nM
